Source: ChEMBL document CHEMBL1201862, “PubChem BioAssay data set” (2004)
Each block holds one compound with its values, some of them ahead of it. Calls of active or inactive are those of the source.

What was measured:
HEK293 [1] = assay: inhibition of NOD1-driven NF-kB reporter – cell-based, luminescence, uHTS, primary screen (AID 1578); type: functional; settings: Homo sapiens
HEK293 [2] = assay: cells; type: functional, cell-based; settings: Homo sapiens
HEK293 [3] = assay: cells; type: functional, cell-based; settings: Homo sapiens; remark: listed apart in the source
HEK293 [4] = assay: NOD2 signaling inhibitors in MDP-stimulated cells, cell-based, uHTS, luminescence (AID 2001); type: functional; settings: Homo sapiens
[5] = viability of PTEN-deleted HCT116 cells – cell-based, HCT116 PTEN knockout, dose response (AID 1047); type: functional;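 further: HCT116 colon tumor cells with PTEN knocked out; cells exposed to compound for 60 hours before readout; potency for loss of cell viability measured by luminescence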
[6] = viability of HCT116 lacking mutant beta-catenin – cell-based, human colon tumor, dose response (AID 1045); type: functional;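 further: HCT116 colon tumor cells with beta catenin knocked out; cells exposed to compound for 60 hours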
HEK293 [7] = assay: cells; settings: Homo sapiens
HEK293 [8] = assay: cells; settings: Homo sapiens; remark: listed apart in the source
[9] = biological target: T1, Calpain-2 catalytic subunit (Sus scrofa, UniProt P43367); assay: m-calpain protease blockers, concentration series – biochemical, fluorogenic peptide substrate, dose response (AID 1420); type: functional
T1 sequence (P43367 whole entry): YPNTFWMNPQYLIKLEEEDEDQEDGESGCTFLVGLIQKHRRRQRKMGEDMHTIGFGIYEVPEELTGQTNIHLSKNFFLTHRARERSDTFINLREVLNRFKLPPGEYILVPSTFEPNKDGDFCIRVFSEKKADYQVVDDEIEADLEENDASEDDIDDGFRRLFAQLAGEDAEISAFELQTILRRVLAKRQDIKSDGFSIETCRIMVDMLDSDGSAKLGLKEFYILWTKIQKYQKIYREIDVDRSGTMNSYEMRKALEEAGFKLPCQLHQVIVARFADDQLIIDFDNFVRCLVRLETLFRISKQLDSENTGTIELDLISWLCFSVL

Coagulation factor XII = biological target: T2, Coagulation factor XII (Homo sapiens, UniProt P00748); type: functional;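 further: activated factor XIIa alpha cleaving a fluorogenic AMC peptide substrate; inhibitor potency from loss of enzyme activity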
T2 sequence (P00748 whole entry): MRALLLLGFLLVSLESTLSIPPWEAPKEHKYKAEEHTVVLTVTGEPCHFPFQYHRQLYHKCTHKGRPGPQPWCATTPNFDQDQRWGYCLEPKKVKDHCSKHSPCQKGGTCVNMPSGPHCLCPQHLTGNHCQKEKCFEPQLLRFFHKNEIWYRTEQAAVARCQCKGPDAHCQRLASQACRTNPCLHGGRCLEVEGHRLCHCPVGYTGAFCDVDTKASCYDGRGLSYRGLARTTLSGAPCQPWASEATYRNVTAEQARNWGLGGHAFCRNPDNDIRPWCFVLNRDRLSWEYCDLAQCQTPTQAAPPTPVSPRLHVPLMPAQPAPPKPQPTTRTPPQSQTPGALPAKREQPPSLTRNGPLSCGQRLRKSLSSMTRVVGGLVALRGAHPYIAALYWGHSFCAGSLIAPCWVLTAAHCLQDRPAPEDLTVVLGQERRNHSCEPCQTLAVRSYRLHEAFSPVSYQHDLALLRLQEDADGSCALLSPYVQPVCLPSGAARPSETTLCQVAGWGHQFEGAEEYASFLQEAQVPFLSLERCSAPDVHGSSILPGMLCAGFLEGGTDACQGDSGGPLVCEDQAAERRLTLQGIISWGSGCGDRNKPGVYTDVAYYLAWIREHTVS

Troponin, cardiac muscle = Troponin, cardiac muscle (Homo sapiens, UniProt P19429+P45379+P63316); assay: Fluorescence-based biochemical high throughput dose response assay for activators of the calcium sensitivity of cardiac Regulated Thin Filaments (RTF). [Related pubchem assays (depositor defined):AID493008, AID493018, AID504382, AID504383]; type: protein-complex assay
H9c2 = assay: cells; type: functional, cell-based; settings: Rattus norvegicus, H9c2, Myocardium;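 further: confirmatory concentration-response retest of ultra-high-throughput screening hits for modulation of myocardial damage; cell death induced by hydrogen peroxide oxidative stress; compound pretreatment for 60 min then peroxide exposure for 2 h; potency is for protecting the cells against peroxide damage rather than for killing them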

SMILES: Cc1cc(C)cc(NC(=O)/C=C/c2ccc([N+](=O)[O-])s2)c1
EC50 (HEK293 [1]): > 20 µM (inactive)
IC50 (HEK293 [2]): 9.79 µM (active)
IC50 (HEK293 [3]): > 20 µM (inactive)
IC50 (HEK293 [4]): > 20 µM (inactive)
EC50 [5]: 3.75 µM (active)
EC50 [6]: 6.03 µM (active)
EC50 (HEK293 [7]): > 59.7 µM (inactive)
EC50 (HEK293 [8]): > 59.7 µM (inactive)

IC50 [9]: 6.62 µM (not active)
IC50 (Coagulation factor XII): > 50 µM (inactive)
SMILES: O=C(c1ccc(N2CCCC2=O)cc1)N1CCCCCC1

SMILES: CCN(CC)S(=O)(=O)c1cc(NC(=O)CSCc2c(C)noc2C)ccc1C
EC50 (HEK293 [7]): > 59.6 µM (inactive)
EC50 (HEK293 [8]): > 59.6 µM (inactive)

SMILES: S=C(Nc1ccc(N2CCOCC2)cc1)Nc1ccc2nc(-c3ccco3)c(-c3ccco3)nc2c1
EC50 (Troponin, cardiac muscle): 2.92 µM (active)
IC50 (H9c2): > 79 µM (inactive)
